Reference: patent publication US9125913B2, “Bcl-2-selective apoptosis-inducing agents for the treatment of cancer and immune diseases” (AbbVie Inc., priority 2008, dated 2015)

Tested on: GST-Bcl-2
Experiment: TR-FRET binding assay, Bcl-2
Conditions: TR-FRET Ki values
Experimental: Tb-anti-GST antibody was purchased from Invitrogen (Catalog No. PV4216).
Representative compounds were serially diluted in dimethyl sulfoxide (DMSO) starting at 50 μM (2× starting concentration; 10% DMSO) and 10 μL were transferred into a 384-well plate.
The samples were then mixed on a shaker for 1 minute and incubated for an additional 3 hours at room temperature. For each assay, the probe/antibody and protein/probe/antibody were included on each assay plate as negative and positive controls, respectively. Fluorescence was measured on the Envision (Perkin Elmer) using a 340/35 nm excitation filter and 520/525 (F-Bak peptide) and 495/510 nm (Tb-labeled anti-Histidine antibody) emission filters.
The inhibition constant (Ki) is the dissociation constant of an enzyme-inhibitor complex or a protein/small molecule complex, wherein the small molecule is inhibiting binding of one protein to another protein or peptide. […] Inhibition constants were determined using Wang's equation (Wang Z-X., An Exact Mathematical Expression For Describing Competitive Binding Of Two Different Ligands To A Protein Molecule. FEBS Lett. 1995, 360:111-4).

Row | Structure (SMILES) | Binding selectivity ratio (Bcl-XL Ki/Bcl-2 Ki)
1 | CC1(C)CCC(CN2CCN(c3ccc(C(=O)NS(=O)(=O)c4ccc(NC[C@H]5CCCO5)c([N+](=O)[O-])c4)c(Oc4ccc5[nH]ccc5c4)c3)CC2)=C(c2ccc(Cl)cc2)C1 [EXAMPLE 370, 4-(4-{[2-(4-chlorophenyl)-4,4-dimethylcyclohex-1-en-1-yl]methyl}piperazin-1-yl)-2-(1H-indol-5-yloxy)-N-[(3-nitro-4-{[(2R)-tetrahydrofuran-2-ylmethyl]amino}phenyl)sulfonyl]benzamide] | >729.9
2 | CC1(C)CCC(CN2CCN(c3ccc(C(=O)NS(=O)(=O)c4ccc(N[C@H]5CC[C@H](N6CCOCC6)CC5)c([N+](=O)[O-])c4)c(Oc4cccc5[nH]ccc45)c3)CC2)=C(c2ccc(Cl)cc2)C1 [EXAMPLE 204, Trans-4-(4-{[2-(4-chlorophenyl)-4,4-dimethylcyclohex-1-en-1-yl]methyl}piperazin-1-yl)-2-(1H-indol-4-yloxy)-N-({4-[(4-morpholin-4-ylcyclohexyl)amino]-3-nitrophenyl}sulfonyl)benzamide] | 291.3
3 | CC1(C)CCC(CN2CCN(c3ccc(C(=O)NS(=O)(=O)c4ccc(NC5(CO)CCOCC5)c([N+](=O)[O-])c4)c(Oc4cccc5[nH]ccc45)c3)CC2)=C(c2ccc(Cl)cc2)C1 [EXAMPLE 241, 4-(4-{[2-(4-chlorophenyl)-4,4-dimethylcyclohex-1-en-1-yl]methyl}piperazin-1-yl)-N-[(4-{[4-(hydroxymethyl)tetrahydro-2H-pyran-4-yl]amino}-3-nitrophenyl)sulfonyl]-2-(1H-indol-4-yloxy)benzamide] | >108.3
4 | CC1(C)CCC(CN2CCN(c3ccc(C(=O)NS(=O)(=O)c4ccc(NC5CCN(CC(F)(F)F)CC5)c([N+](=O)[O-])c4)c(Oc4cccc5[nH]ccc45)c3)CC2)=C(c2ccc(Cl)cc2)C1 [Example 108, 4-(4-{[2-(4-chlorophenyl)-4,4-dimethylcyclohex-1-en-1-yl]methyl}piperazin-1-yl)-2-(1H-indol-4-yloxy)-N-[(3-nitro-4-{[1-(2,2,2-trifluoroethyl)piperidin-4-yl]amino}phenyl)sulfonyl]benzamide] | 25.5
5 | CC1(C)CCC(CN2CCN(c3ccc(C(=O)NS(=O)(=O)c4ccc(NCC5CCOCC5)c(S(=O)(=O)C(F)(F)F)c4)c(Oc4cccc5[nH]ccc45)c3)CC2)=C(c2ccc(Cl)cc2)C1 [EXAMPLE 303, 4-(4-{[2-(4-chlorophenyl)-4,4-dimethylcyclohex-1-en-1-yl]methyl}piperazin-1-yl)-2-(1H-indol-4-yloxy)-N-({4-[(tetrahydro-2H-pyran-4-ylmethyl)amino]-3-[(trifluoromethyl)sulfonyl]phenyl}sulfonyl)benzamide] | >445.9
6 | CC(c1ccccc1-c1ccc(Cl)cc1)N1CCN(c2ccc(C(=O)NS(=O)(=O)c3ccc(NCC4CCOCC4)c([N+](=O)[O-])c3)c(Oc3ccc4[nH]ccc4c3)c2)CC1 (centres unmarked) [EXAMPLE 252, 4-{4-[1-(4′-chloro-1,1′-biphenyl-2-yl)ethyl]piperazin-1-yl}-2-(1H-indol-5-yloxy)-N-({3-nitro-4-[(tetrahydro-2H-pyran-4-ylmethyl)amino]phenyl}sulfonyl)benzamide] | >8570.3
7 | CC(C1=C(c2ccc(Cl)cc2)CC(C)(C)CC1)N1CCN(c2ccc(C(=O)NS(=O)(=O)c3ccc(NN4CCN(C)CC4)c([N+](=O)[O-])c3)c(Oc3ccc4[nH]ccc4c3)c2)CC1 (centres unmarked) [EXAMPLE 254, 4-(4-{1-[2-(4-chlorophenyl)-4,4-dimethylcyclohex-1-en-1-yl]ethyl}piperazin-1-yl)-2-(1H-indol-5-yloxy)-N-({4-[(4-methylpiperazin-1-yl)amino]-3-nitrophenyl}sulfonyl)benzamide] | 421.7
8 | Cc1ccc(S(=O)(=O)NC(=O)c2ccc(N3CCN(Cc4ccccc4-c4ccc(Cl)cc4)CC3)cc2Oc2ccccc2)cc1 [Example 61, 4-{4-[(4′-chloro-1,1′-biphenyl-2-yl)methyl]piperazin-1-yl}-N-[(4-methylphenyl)sulfonyl]-2-phenoxybenzamide] | >12.6
9 | O=C(NS(=O)(=O)c1ccc(NC2CCN(S(=O)(=O)c3cccc4cccnc34)CC2)c([N+](=O)[O-])c1)c1ccc(N2CCN(Cc3ccccc3-c3ccc(Cl)cc3)CC2)cc1Oc1ccccc1 [Example 158, 4-{4-[(4′-chloro-1,1′-biphenyl-2-yl)methyl]piperazin-1-yl}-N-[(3-nitro-4-{[1-(quinolin-8-ylsulfonyl)piperidin-4-yl]amino}phenyl)sulfonyl]-2-phenoxybenzamide] | >10.2
10 | CN(C)CCCc1cccc(-c2ccc(Cl)cc2)c1CN1CCN(c2ccc(C(=O)NS(=O)(=O)c3ccc(NCC4CCOCC4)c([N+](=O)[O-])c3)c(Oc3cccc4[nH]ccc34)c2)CC1 [EXAMPLE 196, 4-[4-({4′-chloro-3-[3-(dimethylamino)propyl]-1,1′-biphenyl-2-yl}methyl)piperazin-1-yl]-2-(1H-indol-4-yloxy)-N-({3-nitro-4-[(tetrahydro-2H-pyran-4-ylmethyl)amino]phenyl}sulfonyl)benzamide] | >20552.4
11 | CN(C)C1CCC(Nc2ccc(S(=O)(=O)NC(=O)c3ccc(N4CCN(CC5=C(c6ccc(Cl)cc6)CC(C)(C)CC5)CC4)cc3Oc3cccc4[nH]ccc34)cc2[N+](=O)[O-])CC1 (centres unmarked) [EXAMPLE 202, 4-(4-{[2-(4-chlorophenyl)-4,4-dimethylcyclohex-1-en-1-yl]methyl}piperazin-1-yl)-N-[(4-{[4-(dimethylamino)cyclohexyl]amino}-3-nitrophenyl)sulfonyl]-2-(1H-indol-4-yloxy)benzamide] | 97.1
12 | CN1CCC(Nc2ccc(S(=O)(=O)NC(=O)c3ccc(N4CCN(Cc5cc(OCCO)ccc5-c5ccc(Cl)cc5)CC4)cc3Oc3cccc4[nH]ccc34)cc2[N+](=O)[O-])CC1 [EXAMPLE 221, 4-(4-{[4′-chloro-4-(2-hydroxyethoxy)-1,1′-biphenyl-2-yl]methyl}piperazin-1-yl)-2-(1H-indol-4-yloxy)-N-({4-[(1-methylpiperidin-4-yl)amino]-3-nitrophenyl}sulfonyl)benzamide] | 3005.2
13 | CC1(C)CCC(CN2CCN(c3ccc(C(=O)NS(=O)(=O)c4ccc(NCCCN5CCOCC5)c(S(=O)(=O)C(F)(F)F)c4)c(Oc4cccc5[nH]ccc45)c3)CC2)=C(c2ccc(Cl)cc2)C1 [EXAMPLE 349, 4-(4-{[2-(4-chlorophenyl)-4,4-dimethylcyclohex-1-en-1-yl]methyl}piperazin-1-yl)-2-(1H-indol-4-yloxy)-N-({4-[(3-morpholin-4-ylpropyl)amino]-3-[(trifluoromethyl)sulfonyl]phenyl}sulfonyl)benzamide] | 51.9
14 | CC1(C)CCC(CN2CCN(c3ccc(C(=O)NS(=O)(=O)c4ccc(NCC5(C)COC5)c([N+](=O)[O-])c4)c(Oc4ccc5[nH]ccc5c4)c3)CC2)=C(c2ccc(Cl)cc2)C1 [EXAMPLE 264, 4-(4-{[2-(4-chlorophenyl)-4,4-dimethylcyclohex-1-en-1-yl]methyl}piperazin-1-yl)-2-(1H-indol-5-yloxy)-N-[(4-{[(3-methyloxetan-3-yl)methyl]amino}-3-nitrophenyl)sulfonyl]benzamide] | >2808.4
